According to patent US20250215029A1 (Recludix Pharma, Inc., priority 2022, published 2025):

How the values were obtained:
[1] = biological target: T1, Recombinant STAT6 protein (STAT6 (W123-T658)) (Homo sapiens, UniProt P42226); assay: STAT6 Fluorescence Polarization (FP) Assay; assay type: binding; settings: STAT6 (W123-T658) 250 nM, probe 5-FAM-Ap[…]-NH2 2 nM, 45-minute incubation; read-out: STAT6 (FP assay IC50 class)
T1 construct: Recombinant STAT6 protein (STAT6 (W123-T658))
T1 sequence (P42226 123-658): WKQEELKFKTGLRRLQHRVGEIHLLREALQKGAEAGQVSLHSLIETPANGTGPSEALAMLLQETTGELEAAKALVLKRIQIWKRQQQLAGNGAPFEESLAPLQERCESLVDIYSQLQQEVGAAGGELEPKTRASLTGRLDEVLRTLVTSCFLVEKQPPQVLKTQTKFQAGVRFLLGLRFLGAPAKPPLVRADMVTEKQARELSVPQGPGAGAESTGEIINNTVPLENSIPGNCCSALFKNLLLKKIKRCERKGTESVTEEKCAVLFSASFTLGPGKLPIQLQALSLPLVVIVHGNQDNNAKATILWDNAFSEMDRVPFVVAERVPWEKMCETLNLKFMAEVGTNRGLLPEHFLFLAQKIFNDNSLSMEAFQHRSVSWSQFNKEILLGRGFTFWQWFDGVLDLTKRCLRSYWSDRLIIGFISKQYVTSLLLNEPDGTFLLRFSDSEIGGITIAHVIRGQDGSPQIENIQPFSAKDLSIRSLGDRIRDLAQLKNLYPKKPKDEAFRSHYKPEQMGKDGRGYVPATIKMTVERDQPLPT
Summary of the method: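 Protein-probe mix (250 nM STAT6 W123-T658, 2 nM 5-FAM-pTyr peptide) in 10 mM HEPES pH 7.4, 50 mM NaCl, 1 mM EDTA, 0.05% Tween 20, 2 mM DTT; added to compound dilution series, 1% DMSO final; 45 min RT; FP read; IC50 via nonlinear regression.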

[2] = biological target: T2, Recombinant STAT3 protein (STAT3 (G127-I722)) (Homo sapiens, UniProt P40763); assay: STAT3 Fluorescence Polarization (FP) Assay; assay type: binding; settings: STAT3 (G127-I722) 25 nM, probe 5-FAM-GpYLPQTV-NH2 2 nM, 45-minute incubation; read-out: STAT3 (FP assay IC50 class)
T2 construct: Recombinant STAT3 protein (STAT3 (G127-I722))
Summary of the method: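 Displacement of a 2 nM 5-FAM-labelled pY peptide (GpYLPQTV) from 25 nM recombinant STAT3 (G127-I722) was monitored by fluorescence polarization. Incubation lasted 45 min at room temperature in pH 7.4 HEPES buffer containing 1% DMSO.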

T2 sequence (P40763 127-722): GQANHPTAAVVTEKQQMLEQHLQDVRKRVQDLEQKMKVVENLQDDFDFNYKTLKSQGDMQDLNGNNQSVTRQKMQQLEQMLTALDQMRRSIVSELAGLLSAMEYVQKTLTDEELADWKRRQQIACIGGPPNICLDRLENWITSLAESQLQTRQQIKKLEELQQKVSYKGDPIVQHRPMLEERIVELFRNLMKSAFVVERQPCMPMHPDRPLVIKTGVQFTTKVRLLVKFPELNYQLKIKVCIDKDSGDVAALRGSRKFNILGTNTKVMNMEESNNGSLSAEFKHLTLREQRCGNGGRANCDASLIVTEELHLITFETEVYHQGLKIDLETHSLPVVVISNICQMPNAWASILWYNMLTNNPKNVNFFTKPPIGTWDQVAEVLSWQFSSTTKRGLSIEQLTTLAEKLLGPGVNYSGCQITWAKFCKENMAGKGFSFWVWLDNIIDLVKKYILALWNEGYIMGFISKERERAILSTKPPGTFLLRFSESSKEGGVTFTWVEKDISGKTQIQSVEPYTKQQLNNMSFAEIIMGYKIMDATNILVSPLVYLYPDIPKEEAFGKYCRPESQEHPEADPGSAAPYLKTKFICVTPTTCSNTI

IC50 [1]	IC50 [2]	SMILES
3 to 30 µM	0.1 to 1 µM	Cc1cccnc1N1C[C@H](NC(=O)[C@@H]2CC[C@@H]3CCCC[C@H](NC(=O)c4cc5cc(C(F)P(=O)(O)O)ccc5s4)C(=O)N32)[C@@H](F)C1 (stereo partly drawn) [Compound 555, (fluoro(2-(((3S,6S,10aS)-3-(((3S,4S)-4-fluoro-1-(3-methylpyridin-2-yl)pyrrolidin-3-yl)carbamoyl)-5-oxodecahydropyrrolo[1,2-a]azocin-6-yl)carbamoyl)benzo[b]thiophen-5-yl)methyl)phosphonic acid]
3 to 30 µM	1 to 10 µM	COc1cc(F)c(C2CN(C(=O)[C@@H]3CC[C@@H]4CCC[C@H](NC(=O)c5cc6cc(CP(=O)(O)O)ccc6s5)C(=O)N43)C2)cn1 [Compound 556, ((2-(((3S,6S,9aS)-3-(3-(4-fluoro-6-methoxypyridin-3-yl)azetidine-1-carbonyl)-5-oxooctahydro-1H-pyrrolo[1,2-a]azepin-6-yl)carbamoyl)benzo[b]thiophen-5-yl)methyl)phosphonic acid]
3 to 30 µM	1 to 10 µM	O=C(N[C@H]1CCC[C@H]2CC[C@@H](C(=O)N3CC(c4cc5cccnc5cc4F)C3)N2C1=O)c1cc2cc(C(F)P(=O)(O)O)ccc2s1 (stereo partly drawn) [Compound 560, (fluoro(2-(((3S,6S,9aS)-3-(3-(7-fluoroquinolin-6-yl)azetidine-1-carbonyl)-5-oxooctahydro-1H-pyrrolo[1,2-a]azepin-6-yl)carbamoyl)benzo[b]thiophen-5-yl)methyl)phosphonic acid]
3 to 30 µM	0.1 to 1 µM	O=C(N[C@H]1CCC[C@H]2CC[C@@H](C(=O)N3CC(c4cccnc4C(F)F)C3)N2C1=O)c1cc2cc(CP(=O)(O)O)ccc2s1 [Compound 562, ((2-(((3S,6S,9aS)-3-(3-(2-(difluoromethyl)pyridin-3-yl)azetidine-1-carbonyl)-5-oxooctahydro-1H-pyrrolo[1,2-a]azepin-6-yl)carbamoyl)benzo[b]thiophen-5-yl)methyl)phosphonic acid]
0.3 to 3 µM	1 to 10 µM	O=C(N[C@H]1CCCC[C@H]2CC[C@@H](C(=O)N3CCC(c4ccccc4F)C3)N2C1=O)c1cc2cc(C(F)P(=O)(O)O)ccc2s1 (stereo partly drawn) [Compound 563, (fluoro(2-(((3S,6S,10aS)-3-(3-(2-fluorophenyl)pyrrolidine-1-carbonyl)-5-oxodecahydropyrrolo[1,2-a]azocin-6-yl)carbamoyl)benzo[b]thiophen-5-yl)methyl)phosphonic acid]
3 to 30 µM	0.1 to 1 µM	O=C(N[C@H]1CCCC[C@H]2CC[C@@H](C(=O)N3CCC(c4cccnc4)CC3)N2C1=O)c1cc2cc(C(F)P(=O)(O)O)ccc2s1 (stereo partly drawn) [Compound 564, (fluoro(2-(((3S,6S,10aS)-5-oxo-3-(4-(pyridin-3-yl)piperidine-1-carbonyl)decahydropyrrolo[1,2-a]azocin-6-yl)carbamoyl)benzo[b]thiophen-5-yl)methyl)phosphonic acid]
3 to 30 µM	0.1 to 1 µM	O=C(N[C@H]1CCC[C@H]2CC[C@@H](C(=O)N3CC(c4ccccc4F)C3)N2C1=O)c1cc2cc(C(F)P(=O)(O)O)ccc2s1 (stereo partly drawn) [Compound 565, (fluoro(2-(((3S,6S,9aS)-3-(3-(2-fluorophenyl)azetidine-1-carbonyl)-5-oxooctahydro-1H-pyrrolo[1,2-a]azepin-6-yl)carbamoyl)benzo[b]thiophen-5-yl)methyl)phosphonic acid]
3 to 30 µM	< 0.1 µM	O=C(N[C@H]1CCCC[C@H]2CC[C@@H](C(=O)N3CC(c4cnccc4F)C3)N2C1=O)c1cc2cc(CP(=O)(O)O)ccc2s1 [Compound 566, ((2-(((3S,6S,10aS)-3-(3-(4-fluoropyridin-3-yl)azetidine-1-carbonyl)-5-oxodecahydropyrrolo[1,2-a]azocin-6-yl)carbamoyl)benzo[b]thiophen-5-yl)methyl)phosphonic acid]

Second part, the compound before the results:

SMILES	IC50 [1]	IC50 [2]
NC(=O)N1C[C@H](NC(=O)[C@@H]2CC[C@@H]3CCCC[C@H](NC(=O)c4cc5cc(C(F)P(=O)(O)O)ccc5s4)C(=O)N32)[C@@H](F)C1 (stereo partly drawn) [Compound 558, ((2-(((3S,6S,10aS)-3-(((3S,4S)-1-carbamoyl-4-fluoropyrrolidin-3-yl)carbamoyl)-5-oxodecahydropyrrolo[1,2-a]azocin-6-yl)carbamoyl)benzo[b]thiophen-5-yl)fluoromethyl)phosphonic acid]	0.3 to 3 µM	< 0.1 µM
O=C(N[C@H]1CCCC[C@H]2CC[C@@H](C(=O)N[C@@H]3CCN(c4ccn[nH]4)C3)N2C1=O)c1cc2cc(C(F)P(=O)(O)O)ccc2s1 (stereo partly drawn) [Compound 559, ((2-(((3S,6S,10aS)-3-(((R)-1-(1H-pyrazol-5-yl)pyrrolidin-3-yl)carbamoyl)-5-oxodecahydropyrrolo[1,2-a]azocin-6-yl)carbamoyl)benzo[b]thiophen-5-yl)fluoromethyl)phosphonic acid]	0.3 to 3 µM	1 to 10 µM
COCC(=O)NC1(c2ccccn2)CN(C(=O)[C@@H]2CC[C@@H]3CCCC[C@H](NC(=O)c4cc5cc(C(F)P(=O)(O)O)ccc5s4)C(=O)N32)C1 (stereo partly drawn) [Compound 567, (fluoro(2-(((3S,6S,10aS)-3-(3-(2-methoxyacetamido)-3-(pyridin-2-yl)azetidine-1-carbonyl)-5-oxodecahydropyrrolo[1,2-a]azocin-6-yl)carbamoyl)benzo[b]thiophen-5-yl)methyl)phosphonic acid]	3 to 30 µM	0.1 to 1 µM
COCCNC1(c2ccccn2)CN(C(=O)[C@@H]2CC[C@@H]3CCCC[C@H](NC(=O)c4cc5cc(C(F)P(=O)(O)O)ccc5s4)C(=O)N32)C1 (stereo partly drawn) [Compound 568, (fluoro(2-(((3S,6S,10aS)-3-(3-((2-methoxyethyl)amino)-3-(pyridin-2-yl)azetidine-1-carbonyl)-5-oxodecahydropyrrolo[1,2-a]azocin-6-yl)carbamoyl)benzo[b]thiophen-5-yl)methyl)phosphonic acid]	3 to 30 µM	< 0.1 µM
Cn1ccc(N2C(=O)N(C(=O)[C@@H]3CC[C@@H]4CCCC[C@H](NC(=O)c5cc6cc(C(F)P(=O)(O)O)ccc6s5)C(=O)N43)C3(CC3)C2=O)cc1=O (stereo partly drawn) [Compound 569, (fluoro(2-(((3S,6S,10aS)-3-(6-(1-methyl-2-oxo-1,2-dihydropyridin-4-y1)-5,7-dioxo-4,6-diazaspiro[2.4]heptane-4-carbonyl)-5-oxodecahydropyrrolo[1,2-a]azocin-6-yl)carbamoyl)benzo[b]thiophen-5-yl)methyl)phosphonic acid]	0.3 to 3 µM	1 to 10 µM
O=C(N[C@H]1CCCC[C@H]2CC[C@@H](C(=O)N3CC(c4ccccc4)CC34CC4)N2C1=O)c1ccc2cnc(CP(=O)(O)O)cc2c1 (stereo partly drawn) [Compound 570, ((6-(((3S,6S,10aS)-5-oxo-3-(6-phenyl-4-azaspiro[2.4]heptane-4-carbonyl)decahydropyrrolo[1,2-a]azocin-6-yl)carbamoyl)isoquinolin-3-yl)methyl)phosphonic acid]	3 to 30 µM	1 to 10 µM
O=C(N[C@H]1CCCC[C@H]2CC[C@@H](C(=O)N3CC(c4ccccc4)CC34CC4)N2C1=O)c1ccc2ccc(CP(=O)(O)O)nc2c1 (stereo partly drawn) [Compound 571, ((7-(((3S,6S,10aS)-5-oxo-3-(6-phenyl-4-azaspiro[2.4]heptane-4-carbonyl)decahydropyrrolo[1,2-a]azocin-6-yl)carbamoyl)quinolin-2-yl)methyl)phosphonic acid]	3 to 30 µM	1 to 10 µM
O=C(N[C@H]1CCCC[C@H]2CC[C@@H](C(=O)N3C(=O)N(c4ccn(C(F)F)c(=O)c4)C(=O)C34CC4)N2C1=O)c1cc2cc(C(F)P(=O)(O)O)ccc2s1 (stereo partly drawn) [Compound 572, ((2-(((3S,6S,10aS)-3-(6-(1-(difluoromethyl)-2-oxo-1,2-dihydropyridin-4-yl)-5,7-dioxo-4,6-diazaspiro[2.4]heptane-4-carbonyl)-5-oxodecahydropyrrolo[1,2-a]azocin-6-yl)carbamoyl)benzo[b]thiophen-5-yl)fluoromethyl)phosphonic acid]	0.3 to 3 µM	1 to 10 µM
O=C(N[C@H]1CCCC[C@H]2CC[C@@H](C(=O)N3CC(N4CCS(=O)(=O)CC4)C3)N2C1=O)c1cc2cc(C(F)P(=O)(O)O)ccc2s1 (stereo partly drawn) [Compound 573, ((2-(((3S,6S,10aS)-3-(3-(1,1-dioxidothiomorpholino)azetidine-1-carbonyl)-5-oxodecahydropyrrolo[1,2-a]azocin-6-yl)carbamoyl)benzo[b]thiophen-5-yl)fluoromethyl)phosphonic acid]	3 to 30 µM	0.1 to 1 µM
